Experiments:
EGFR = EGFR (Homo sapiens (Human), UniProt P00533); assay: ErbB Enzyme Assay (HTRF KinEASE-TK), Assay 3; assay type: biochemical
Protocol: The kinases were incubated with 250 nM TK-substrate biotin (CisBio, part of cat #62TKOPEC) at 1 mM ATP along with test compounds in a buffer consisting of 25 mM HEPES, pH 7.4, 10 mM MgCl2, 0.01% Triton X-100, and 2% DMSO in a volume of 8 μL. […] After 30-minute incubation at 22° C., the reaction was quenched by adding 8 μL of quench solution containing 62.5 nM Sa-XL665 and 0.25×TK-Ab-Cryptate in HTRF detection buffer (all from CisBio, part of cat #62TKOPEC). […] A 4-parameter logistic curve was fit to the POC values as a function of the concentration of compound, and the IC50 value was the point where the best-fit curve crossed 50 POC.

[1] = molecular target: ErbB2 with Exon 20 YVMA insertion (HER2-YVMA) (Homo sapiens (Human), UniProt P04626, INS775YVMA); assay: Cellular Phosphorylation Assay, Assay 4 (constitutive ErbB2 phosphorylation, NIH 3T3 cells); assay type: cell-based
Chain of ErbB2 with Exon 20 YVMA insertion (HER2-YVMA) (P04626 other isoform, or with tags, fused parts or gaps ins YVMA behind 775): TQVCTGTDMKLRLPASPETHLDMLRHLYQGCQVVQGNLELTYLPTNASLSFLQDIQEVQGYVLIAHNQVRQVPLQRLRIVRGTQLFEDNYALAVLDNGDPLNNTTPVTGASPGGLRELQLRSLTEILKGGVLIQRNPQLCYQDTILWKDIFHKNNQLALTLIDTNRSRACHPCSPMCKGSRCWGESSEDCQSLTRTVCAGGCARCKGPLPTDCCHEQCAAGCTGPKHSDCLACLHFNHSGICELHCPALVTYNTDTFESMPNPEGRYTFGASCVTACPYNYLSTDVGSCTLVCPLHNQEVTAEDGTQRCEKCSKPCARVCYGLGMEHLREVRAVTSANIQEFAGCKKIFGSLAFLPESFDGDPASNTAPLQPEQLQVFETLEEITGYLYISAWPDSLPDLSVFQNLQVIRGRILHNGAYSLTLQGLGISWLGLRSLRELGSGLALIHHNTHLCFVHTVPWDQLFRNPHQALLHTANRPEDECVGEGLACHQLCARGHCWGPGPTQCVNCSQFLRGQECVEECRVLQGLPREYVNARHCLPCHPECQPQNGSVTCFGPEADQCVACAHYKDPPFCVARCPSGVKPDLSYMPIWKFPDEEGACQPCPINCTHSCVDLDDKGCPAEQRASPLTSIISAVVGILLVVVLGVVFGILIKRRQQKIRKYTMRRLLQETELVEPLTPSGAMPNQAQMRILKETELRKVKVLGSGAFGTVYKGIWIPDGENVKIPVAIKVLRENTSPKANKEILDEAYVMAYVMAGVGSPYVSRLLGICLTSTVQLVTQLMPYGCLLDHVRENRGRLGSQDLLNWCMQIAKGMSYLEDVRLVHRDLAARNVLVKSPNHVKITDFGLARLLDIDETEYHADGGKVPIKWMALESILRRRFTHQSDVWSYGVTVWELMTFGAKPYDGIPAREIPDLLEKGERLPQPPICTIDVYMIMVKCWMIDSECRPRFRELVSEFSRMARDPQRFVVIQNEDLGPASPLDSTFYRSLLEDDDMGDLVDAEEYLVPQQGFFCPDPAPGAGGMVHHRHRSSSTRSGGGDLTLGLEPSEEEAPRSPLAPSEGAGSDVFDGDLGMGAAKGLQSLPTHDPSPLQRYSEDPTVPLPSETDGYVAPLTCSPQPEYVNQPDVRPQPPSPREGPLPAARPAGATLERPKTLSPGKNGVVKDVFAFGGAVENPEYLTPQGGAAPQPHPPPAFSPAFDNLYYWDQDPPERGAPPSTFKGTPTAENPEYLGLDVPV
Protocol: (§1) NIH 3T3 cells were engineered to express ErbB2 with Exon 20 YVMA insertion (HER2-YVMA (SEQ ID NO: 2); Assay 4) or EGFR wild type (EGFR WT; Assay 5) with constructs obtained from GenScript and grown in DMEM supplemented with 10% fetal bovine serum and 15 μg/ml blasticidin. […] Serially diluted compounds were added to the plates for 1 hour at 37° C./5% CO2. EGFR WT cells were stimulated with 100 ng/ml rEGF for an additional 10 minutes at 37° C./5% CO2.
(§2) After compound incubation, medium was removed from the cells, which were then fixed in 3.7% formaldehyde in PBS at room temperature for 20 minutes. Following a wash with PBS, cells were permeabilized with 100% methanol at room temperature for 10 minutes. Cells were then washed with PBS/0.05% Tween-20 and blocked with Odyssey blocking buffer (LI-COR Biosciences) for at least 1 hour at room temperature. Antibodies to phosphorylated ErbB2 (Y1196, Cell Signaling #6942) or phosphorylated EGFR (Y1068, Cell Signaling #3777) and GAPDH (Millipore #MAB374) were added to the cells in blocking buffer containing 0.05% azide and incubated overnight at 4° C. After washing with PBS/0.05% Tween-20, the cells were incubated with fluorescently labeled secondary anti-rabbit antibody (LiCOR, IRDye 800CW #926-32211) and anti-mouse antibody (Molecular Probes, Alexa Fluor 680 #A21058) for 1 hour at room temperature in the dark. Cells were then washed and analyzed for fluorescence at both wavelengths using the Odyssey Infrared Imaging System (LI-COR Biosciences). Phosphorylated ErbB2 and EGFR signal was normalized to GAPDH signal to generate curves and calculate IC50 values.

EGFR wild type (EGFR WT) = EGFR wild type (EGFR WT) (Homo sapiens (Human), UniProt P00533); assay: Cellular Phosphorylation Assay, Assay 5 (EGF-stimulated EGFR phosphorylation, NIH 3T3 cells); assay type: cell-based
Chain of EGFR wild type (EGFR WT) (P00533 25-1210): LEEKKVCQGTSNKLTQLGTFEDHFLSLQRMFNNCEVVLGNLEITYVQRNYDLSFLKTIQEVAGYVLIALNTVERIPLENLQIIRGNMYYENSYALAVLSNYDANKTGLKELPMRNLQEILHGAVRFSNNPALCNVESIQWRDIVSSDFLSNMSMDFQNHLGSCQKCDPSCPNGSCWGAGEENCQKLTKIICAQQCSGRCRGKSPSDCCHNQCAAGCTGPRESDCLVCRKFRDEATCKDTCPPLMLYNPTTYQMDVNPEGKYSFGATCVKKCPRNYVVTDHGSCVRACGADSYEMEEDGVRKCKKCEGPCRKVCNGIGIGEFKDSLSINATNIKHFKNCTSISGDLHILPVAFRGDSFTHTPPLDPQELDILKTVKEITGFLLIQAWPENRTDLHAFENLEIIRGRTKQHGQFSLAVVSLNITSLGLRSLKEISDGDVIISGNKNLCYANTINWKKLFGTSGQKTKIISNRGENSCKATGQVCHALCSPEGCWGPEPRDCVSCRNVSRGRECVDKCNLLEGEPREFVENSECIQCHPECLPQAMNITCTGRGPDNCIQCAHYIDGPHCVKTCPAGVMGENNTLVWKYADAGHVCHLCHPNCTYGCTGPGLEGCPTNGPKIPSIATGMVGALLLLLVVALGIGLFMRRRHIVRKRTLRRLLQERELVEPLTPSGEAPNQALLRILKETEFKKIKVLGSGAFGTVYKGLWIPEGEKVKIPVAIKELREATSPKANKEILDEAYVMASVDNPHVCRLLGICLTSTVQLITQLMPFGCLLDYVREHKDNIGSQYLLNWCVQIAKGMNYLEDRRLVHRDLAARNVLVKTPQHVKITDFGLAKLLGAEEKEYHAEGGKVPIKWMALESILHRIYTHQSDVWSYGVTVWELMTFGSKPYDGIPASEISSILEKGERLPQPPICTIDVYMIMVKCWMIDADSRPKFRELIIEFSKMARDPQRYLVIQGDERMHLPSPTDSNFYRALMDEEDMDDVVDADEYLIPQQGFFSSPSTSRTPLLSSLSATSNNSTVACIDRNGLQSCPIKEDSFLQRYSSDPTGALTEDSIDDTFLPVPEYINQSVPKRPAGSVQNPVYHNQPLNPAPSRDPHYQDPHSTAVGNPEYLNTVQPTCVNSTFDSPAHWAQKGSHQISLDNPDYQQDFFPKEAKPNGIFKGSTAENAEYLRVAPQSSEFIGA
Protocol: as §1, §2

ErbB2 WT = ErbB2 WT (Homo sapiens (Human), UniProt P04626); assay: ErbB Enzyme Assay (HTRF KinEASE-TK), Assay 2; assay type: biochemical
Chain of ErbB2 WT (P04626 23-1255): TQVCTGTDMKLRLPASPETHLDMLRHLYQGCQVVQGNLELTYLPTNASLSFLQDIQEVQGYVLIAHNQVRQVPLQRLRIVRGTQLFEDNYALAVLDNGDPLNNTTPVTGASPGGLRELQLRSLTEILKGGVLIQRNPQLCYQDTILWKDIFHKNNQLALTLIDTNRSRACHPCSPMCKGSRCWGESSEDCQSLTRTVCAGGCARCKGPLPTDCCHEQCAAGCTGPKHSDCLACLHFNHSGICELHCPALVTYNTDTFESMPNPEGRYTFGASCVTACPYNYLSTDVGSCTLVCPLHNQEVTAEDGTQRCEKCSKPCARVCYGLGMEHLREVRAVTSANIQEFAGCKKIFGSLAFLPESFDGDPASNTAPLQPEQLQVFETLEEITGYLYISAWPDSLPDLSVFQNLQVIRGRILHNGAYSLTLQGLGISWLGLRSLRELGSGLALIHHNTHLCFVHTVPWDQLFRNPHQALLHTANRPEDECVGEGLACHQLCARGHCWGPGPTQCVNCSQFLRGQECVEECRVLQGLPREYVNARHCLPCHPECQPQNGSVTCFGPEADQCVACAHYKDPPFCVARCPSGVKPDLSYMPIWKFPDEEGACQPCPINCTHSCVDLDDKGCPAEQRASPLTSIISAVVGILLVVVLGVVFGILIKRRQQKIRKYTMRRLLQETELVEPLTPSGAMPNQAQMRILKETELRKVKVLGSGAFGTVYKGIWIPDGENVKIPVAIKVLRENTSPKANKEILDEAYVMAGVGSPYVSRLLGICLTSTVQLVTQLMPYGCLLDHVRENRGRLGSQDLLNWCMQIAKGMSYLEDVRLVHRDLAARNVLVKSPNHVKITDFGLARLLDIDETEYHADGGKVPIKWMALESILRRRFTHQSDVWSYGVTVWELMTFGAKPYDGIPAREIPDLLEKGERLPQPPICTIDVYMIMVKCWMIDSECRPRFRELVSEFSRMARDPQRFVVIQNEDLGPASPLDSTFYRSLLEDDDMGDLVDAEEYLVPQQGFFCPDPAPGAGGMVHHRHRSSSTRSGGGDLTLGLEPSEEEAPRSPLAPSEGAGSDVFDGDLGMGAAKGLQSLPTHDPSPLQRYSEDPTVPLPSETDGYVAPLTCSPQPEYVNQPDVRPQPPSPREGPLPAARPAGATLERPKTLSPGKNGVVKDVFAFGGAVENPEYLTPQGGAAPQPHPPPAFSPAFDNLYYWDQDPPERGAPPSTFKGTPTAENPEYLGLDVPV
Protocol: The kinases were incubated with 250 nM TK-substrate biotin (CisBio, part of cat #62TKOPEC) at 1 mM ATP along with test compounds in a buffer consisting of 25 mM HEPES, pH 7.4, 10 mM MgCl2, 0.01% Triton X-100, and 2% DMSO in a volume of 8 μL. […] After 30-minute incubation at 22° C., the reaction was quenched by adding 8 μL of quench solution containing 62.5 nM Sa-XL665 and 0.25×TK-Ab-Cryptate in HTRF detection buffer (all from CisBio, part of cat #62TKOPEC).

[2] = cellular ErbB2 YVMA phosphorylation
[3] = cellular EGFR WT phosphorylation, EGF-stimulated
[4] = EGF-stimulated EGFR WT phosphorylation

Chain of EGFR (P00533 25-1210): as the sequence (P00533 25-1210) above

IC50 (EGFR; EGFR enzyme assay) [nM]	IC50 [1, 2] [nM]	IC50 (EGFR wild type (EGFR WT); [3]) [nM]	IC50 (ErbB2 WT; ErbB2 WT enzyme assay) [nM]	IC50 (EGFR; EGFR enzyme) [nM]	IC50 ([1]; ErbB2 YVMA phosphorylation) [nM]	IC50 (EGFR wild type (EGFR WT); [4]) [nM]	IC50 (ErbB2 WT; ErbB2 WT enzyme) [nM]	SMILES
3000	58.3	≥ 5000	101					C=CC(=O)N1C[C@@H](c2ccc3ncnc(Nc4cc(C)c(Oc5ccn6ncnc6c5)cc4F)c3n2)C[C@@H]1C (mixture of isomers) [Example 384]
≥ 10000	235	≥ 5000	220					C=CC(=O)N1C[C@H](c2ccc3ncnc(Nc4cc(C)c(Oc5ccn6ncnc6c5)cc4F)c3n2)C[C@H]1C (mixture of isomers) [Example 386]
2200	60.8	4280	52.1					C=CC(=O)N1C[C@H](c2ccc3ncnc(Nc4ccc(Oc5ccn6ncnc6c5)c(C)c4F)c3n2)C[C@H]1C (mixture of isomers) [Example 387]
				3170	34	3780	41.5	C=CC(=O)N1CC[C@H]2C[C@@H](c3ccc4ncnc(Nc5ccc(Oc6ccc7c(c6)ncn7C)c(C)c5F)c4n3)C[C@H]21 (racemic) [Example 133, rac-1-((3aR,5R,6aR)-5-(4-((2-fluoro-3-methyl-4-((1-methyl-1H-benzo[d]imidazol-5-yl)oxy)phenyl)amino)pyrido[3,2-d]pyrimidin-6-yl)hexahydrocyclopenta[b]pyrrol-1(2H)-yl)prop-2-en-1-one]
				≥ 10000	222	≥ 5000	86.3	C=CC(=O)N1CC[C@@H]2[C@H](c3ccc4ncnc(Nc5cc(C)c(Oc6ccc7c(c6)ncn7C)cc5F)c4n3)CC[C@@H]21 (racemic) [Example 134, rac-1-((3aR,4R,6aS)-4-(4-((2-fluoro-5-methyl-4-((1-methyl-1H-benzo[d]imidazol-5-yl)oxy)phenyl)amino)pyrido[3,2-d]pyrimidin-6-yl)hexahydrocyclopenta[b]pyrrol-1(2H)-yl)prop-2-en-1-one]
				≥ 10000	44.5	≥ 5000	121	C=CC(=O)N1CCC[C@@H](c2ccc3ncnc(Nc4cc(C)c(Oc5ccc6c(c5)ncn6C)cc4F)c3n2)CC1 (racemic) [Example 135, rac-(R)-1-(4-(4-((2-fluoro-5-methyl-4-((1-methyl-1H-benzo[d]imidazol-5-yl)oxy)phenyl)amino)pyrido[3,2-d]pyrimidin-6-yl)azepan-1-yl)prop-2-en-1-one]
				≥ 10000	32.5	≥ 5000	≥ 10000	C=CC(=O)N1CC[C@H](c2ccc3ncnc(Nc4cc(C)c(Oc5ccc6c(c5)ncn6C)cc4F)c3n2)CC(C)(C)C1 (racemic) [Example 139, rac-(R)-1-(5-(4-((2-fluoro-5-methyl-4-((1-methyl-1H-benzo[d]imidazol-5-yl)oxy)phenyl)amino)pyrido[3,2-d]pyrimidin-6-yl)-3,3-dimethylazepan-1-yl)prop-2-en-1-one]
				≥ 10000	79.5	≥ 5000	49.9	C=CC(=O)N1CC[C@@H]2[C@H](c3ccc4ncnc(Nc5ccc(Oc6ccc7c(c6)ncn7C)c(C)c5F)c4n3)CC[C@@H]21 (racemic) [Example 142, rac-1-((3aR,4R,6aS)-4-(4-((2-fluoro-3-methyl-4-((1-methyl-1H-benzo[d]imidazol-5-yl)oxy)phenyl)amino)pyrido[3,2-d]pyrimidin-6-yl)hexahydrocyclopenta[b]pyrrol-1(2H)-yl)prop-2-en-1-one]
				8790	18.8	1510	42.3	C=CC(=O)N1CCN(c2ccc3ncnc(Nc4ccc(Oc5ccn6ncnc6c5)c(C)c4F)c3n2)C[C@@H]1C1CC1 (racemic) [Example 163, rac-1-(4-(4-((4-([1,2,4]triazolo[1,5-a]pyridin-7-yloxy)-2-fluoro-3-methylphenyl)amino)pyrido[3,2-d]pyrimidin-6-yl)-2-cyclopropylpiperazin-1-yl)prop-2-en-1-one]
				1790	16.5	356	74.3	CC#CC(=O)N1CCN(c2ccc3ncnc(Nc4ccc(Oc5ccn6ncnc6c5)c(C)c4F)c3n2)C[C@@H]1C(F)F (racemic) [Example 168, rac-1-(4-(4-((4-([1,2,4]triazolo[1,5-a]pyridin-7-yloxy)-2-fluoro-3-methylphenyl)amino)pyrido[3,2-d]pyrimidin-6-yl)-2-(difluoromethyl)piperazin-1-yl)but-2-yn-1-one]
≥ 10000	76.9	≥ 5000	124					C=CC(=O)N1CC[C@H](c2ccc3ncnc(Nc4ccc(Oc5cnc6c(c5)ncn6C)c(Cl)c4)c3n2)CC1(C)C (racemic) [Example 272]
6630	18.1	1820	54.6					C=CC(=O)N1CCN(c2ccc3ncnc(Nc4ccc(Oc5cc(F)c6c(c5)ncn6C)c(C)c4)c3n2)C[C@@H]1C1CC1 (racemic) [Example 278]
				340	1740		47.9	C=CS(=O)(=O)Nc1ccc2ncnc(Nc3ccc(Oc4ccc5c(c4)ncn5C)c(C)c3)c2n1 [Example 20, N-(4-((3-methyl-4-((1-methyl-1H-benzo[d]imidazol-5-yl)oxy)phenyl)amino)pyrido[3,2-d]pyrimidin-6-yl)ethenesulfonamide]
				466	250		83.2	C=CS(=O)(=O)N(C)c1ccc2ncnc(Nc3ccc(Oc4ccc5c(c4)ncn5C)c(C)c3)c2n1 [Example 21, N-methyl-N-(4-((3-methyl-4-((1-methyl-1H-benzo[d]imidazol-5-yl)oxy)phenyl)amino)pyrido[3,2-d]pyrimidin-6-yl)ethenesulfonamide]
				≥ 10000	80.6		167	CNC(=O)/C=C/c1ccc2ncnc(Nc3ccc(Oc4ccc5c(c4)ncn5C)c(C)c3)c2n1 [Example 22, (E)-N-methyl-3-(4-((3-methyl-4-((1-methyl-1H-benzo[d]imidazol-5-yl)oxy)phenyl)amino)pyrido[3,2-d]pyrimidin-6-yl)acrylamide]
				709	63.9		72.7	C=CC(=O)N(C)c1ccc2ncnc(Nc3ccc(Oc4ccc5c(c4)ncn5C)c(C)c3)c2n1 [Example 23, N-methyl-N-(4-((3-methyl-4-((1-methyl-1H-benzo[d]imidazol-5-yl)oxy)phenyl)amino)pyrido[3,2-d]pyrimidin-6-yl)acrylamide]
					408	≥ 5000	69.1	Cc1c(Oc2ccn3ncnc3c2)ccc(Nc2ncnc3ccc(N4CCN(C(=O)C56CC5C6)C(C)(C)C4)nc23)c1F (stereo not shown) [Example 186, (4-(4-((4-([1,2,4]triazolo[1,5-a]pyridin-7-yloxy)-2-fluoro-3-methylphenyl)amino)pyrido[3,2-d]pyrimidin-6-yl)-2,2-dimethylpiperazin-1-yl)(bicyclo[1.1.0]butan-1-yl)methanone]
	73.7	1420	103					CC#CC(=O)N1C[C@@H]2CC[C@H]1CN2c1ccc2ncnc(Nc3ccc(Oc4ccn5ncnc5c4)c(C)c3F)c2n1 [Example 329]

SMILES	IC50 (EGFR; EGFR enzyme assay) [nM]	IC50 [1, 2] [nM]	IC50 (EGFR wild type (EGFR WT); [3]) [nM]	IC50 (ErbB2 WT; ErbB2 WT enzyme assay) [nM]	IC50 (EGFR; EGFR enzyme) [nM]	IC50 ([1]; ErbB2 YVMA phosphorylation) [nM]	IC50 (EGFR wild type (EGFR WT); [4]) [nM]	IC50 (ErbB2 WT; ErbB2 WT enzyme) [nM]
C=CC(=O)N1[C@@H]2CC[C@H]1CC(c1ccc3ncnc(Nc4cc(C)c(Oc5ccc6c(c5)ncn6C)cc4F)c3n1)C2 (mixture of isomers) [Example 130, rac-1-((1R,5S)-3-(4-((2-fluoro-5-methyl-4-((1-methyl-1H-benzo[d]imidazol-5-yl)oxy)phenyl)amino)pyrido[3,2-d]pyrimidin-6-yl)-8-azabicyclo[3.2.1]octan-8-yl)prop-2-en-1-one]					7340	19.9	≥ 5000	135
